# Laboratory results: ChEMBL document CHEMBL1128242, “Polyiodinated triglyceride analogs as potential computed tomography imaging agents for the liver” (J Med Chem, 1995)
# Tests used:
# [1] = system: Rattus norvegicus; test: Distribution of radioactivity was determined in liver at 30 min after intravenous administration of 1,3-Disubstituted Triacylglycerols in rats; assay type: ADME, organism-based; settings: in vivo, 0.5 h
# [2] = system: Rattus norvegicus; test: Polyacrylamide Gel Electrophoresis (PAGE) to determined the concentration of high density lipoprotein (HDL) in rats after iv administration of [125I]-labeled 2-Oleolyl 1,3-disubstituted triglycerols was reported; assay type: ADME, organism-based; settings: in vivo
# [3] = system: Rattus norvegicus; test: Polyacrylamide Gel Electrophoresis (PAGE) to determined the concentration of albumin(ALB) in rats after iv administration of [125I]-labeled 2-Oleolyl 1,3-disubstituted triglycerols was reported; assay type: ADME, organism-based; settings: in vivo
# [4] = system: Rattus norvegicus; test: Distribution of radioactivity was determined in spleen at 24 hr after intravenous administration of [125I]-labeled 2-oleoglycerol 1,3-Bis-[omega-(3-amino-2,4,6-triiodophenyl)alkanoates] in rats; assay type: ADME, organism-based; settings: in vivo
# [5] = system: Rattus norvegicus; test: Analysis of lipid-soluble radioactivity in liver 24 hour after iv administration of [125I]-labeled 2-Oleoyl 1,3-disubstituted Triacylglycerols and represented as % CHCl3/CH3OH from rat; assay type: ADME, organism-based; settings: in vivo
# [6] = system: Rattus norvegicus; test: Distribution of radioactivity was determined in lung at 30 min after intravenous administration of [125I]-labeled 2-oleoglycerol 1,3-Bis-[omega-(3-amino-2,4,6-triiodophenyl)alkanoates] in rats; assay type: ADME, organism-based; settings: in vivo, 0.5 h
# [7] = system: Rattus norvegicus; test: Distribution of radioactivity was determined in blood at 48 hr after intravenous administration of 1,3-Disubstituted Triacylglycerols in rats; assay type: ADME, organism-based; settings: in vivo
# [8] = system: Rattus norvegicus; test: Analysis of lipid-soluble radioactivity in liver 0.5 hour after iv administration of [125I]-labeled 2-Oleoyl 1,3-disubstituted Triacylglycerols and represented as % CHCl3/CH3OH from rat; assay type: ADME, organism-based; settings: in vivo
# [9] = system: Rattus norvegicus; test: Distribution of radioactivity was determined in liver at 30 min after intravenous administration of [125I]-labeled 2-oleoglycerol 1,3-Bis-[omega-(3-amino-2,4,6-triiodophenyl)alkanoates] in rats; assay type: ADME, organism-based; settings: in vivo, 0.5 h
# [10] = system: Rattus norvegicus; test: Distribution of radioactivity was determined in liver at 3h after intravenous administration of 1,3-Disubstituted Triacylglycerols in rats; assay type: ADME, organism-based; settings: in vivo
# [11] = system: Rattus norvegicus; test: Distribution of radioactivity was determined in plasma at 3h after intravenous administration of [125I]-labeled 2-oleoglycerol 1,3-Bis-[omega-(3-amino-2,4,6-triiodophenyl)alkanoates] in rats; assay type: ADME, organism-based; settings: in vivo
# [12] = system: Rattus norvegicus; test: Polyacrylamide Gel Electrophoresis (PAGE) to determined the concentration of stacking gel(SG) in rats after iv administration of [125I]-labeled 2-Oleolyl 1,3-disubstituted triglycerols was reported; assay type: ADME, organism-based; settings: in vivo
# [13] = system: Rattus norvegicus; test: Analysis of lipid-soluble radioactivity in plasma 24 hour after iv administration of [125I]-labeled 2-Oleoyl 1,3-disubstituted Triacylglycerols and represented as % CHCl3/CH3OH from rat; assay type: ADME, organism-based; settings: in vivo
# [14] = system: Rattus norvegicus; test: Distribution of radioactivity was determined in kidney at 3h after intravenous administration of [125I]-labeled 2-oleoglycerol 1,3-Bis-[omega-(3-amino-2,4,6-triiodophenyl)alkanoates] in rats; assay type: ADME, organism-based; settings: in vivo
# [15] = system: Rattus norvegicus; test: Distribution of radioactivity was determined in thyroid at 24 hr after intravenous administration of [125I]-labeled 2-oleoglycerol 1,3-Bis-[omega-(3-amino-2,4,6-triiodophenyl)alkanoates] in rats; assay type: ADME, organism-based, Thyroid gland; settings: in vivo
# [16] = system: Rattus norvegicus; test: Distribution of radioactivity was determined in spleen at 24 hr after intravenous administration of 1,3-Disubstituted Triacylglycerols in rats; assay type: ADME, organism-based; settings: in vivo
# [17] = system: Rattus norvegicus; test: Distribution of radioactivity was determined in plasma at 24 hr after intravenous administration of [125I]-labeled 2-oleoglycerol 1,3-Bis-[omega-(3-amino-2,4,6-triiodophenyl)alkanoates] in rats; assay type: ADME, organism-based; set-up: unit not given here; settings: in vivo
# [18] = system: Rattus norvegicus; test: Analysis of lipid-soluble radioactivity in liver 0.5 hour after iv administration of [125I]-labeled 2-Oleoyl 1,3-disubstituted Triacylglycerols expressed as %parent compound (by TLC with authentic [125I]-labeled standard) from rat; assay type: ADME, organism-based; settings: in vivo
# [19] = system: Rattus norvegicus; test: Distribution of radioactivity was determined in blood at 30 min after intravenous administration of 1,3-Disubstituted Triacylglycerols in rats; assay type: ADME, organism-based; settings: in vivo, 0.5 h
# [20] = system: Rattus norvegicus; test: Distribution of radioactivity was determined in blood at 3h after intravenous administration of 1,3-Disubstituted Triacylglycerols in rats; assay type: ADME, organism-based; settings: in vivo
# [21] = system: Rattus norvegicus; test: Distribution of radioactivity was determined in lung at 24 hr after intravenous administration of [125I]-labeled 2-oleoglycerol 1,3-Bis-[omega-(3-amino-2,4,6-triiodophenyl)alkanoates] in rats; assay type: ADME, organism-based; settings: in vivo
# [22] = system: Rattus norvegicus; test: Distribution of radioactivity was determined in liver at 24 hr after intravenous administration of [125I]-labeled 2-oleoglycerol 1,3-Bis-[omega-(3-amino-2,4,6-triiodophenyl)alkanoates] in rats; assay type: ADME, organism-based; settings: in vivo
# [23] = system: Rattus norvegicus; test: Distribution of radioactivity was determined in blood at 24 hr after intravenous administration of 1,3-Disubstituted Triacylglycerols in rats; assay type: ADME, organism-based; settings: in vivo
# [24] = system: Rattus norvegicus; test: Distribution of radioactivity was determined in spleen at 48 hr after intravenous administration of 1,3-Disubstituted Triacylglycerols in rats; assay type: ADME, organism-based; settings: in vivo
# [25] = system: Rattus norvegicus; test: Distribution of radioactivity was determined in plasma at 30 min after intravenous administration of [125I]-labeled 2-oleoglycerol 1,3-Bis-[omega-(3-amino-2,4,6-triiodophenyl)alkanoates] in rats; assay type: ADME, organism-based; settings: in vivo, 0.5 h
# [26] = system: Rattus norvegicus; test: Distribution of radioactivity was determined in thyroid at 30 min after intravenous administration of [125I]-labeled 2-oleoglycerol 1,3-Bis-[omega-(3-amino-2,4,6-triiodophenyl)alkanoates] in rats; assay type: ADME, organism-based, Thyroid gland; settings: in vivo, 0.5 h
# [27] = system: Rattus norvegicus; test: Distribution of radioactivity was determined in spleen at 3h after intravenous administration of [125I]-labeled 2-oleoglycerol 1,3-Bis-[omega-(3-amino-2,4,6-triiodophenyl)alkanoates] in rats; assay type: ADME, organism-based; settings: in vivo
# [28] = system: Rattus norvegicus; test: Distribution of radioactivity was determined in heart at 3h after intravenous administration of [125I]-labeled 2-oleoglycerol 1,3-Bis-[omega-(3-amino-2,4,6-triiodophenyl)alkanoates] in rats; assay type: ADME, organism-based; settings: in vivo
# [29] = system: Rattus norvegicus; test: Analysis of lipid-soluble radioactivity in liver 24 hour after iv administration of [125I]-labeled 2-Oleoyl 1,3-disubstituted Triacylglycerols expressed as %parent compound (by TLC with authentic [125I]-labeled standard) from rat; assay type: ADME, organism-based; settings: in vivo
# [30] = system: Rattus norvegicus; test: Distribution of radioactivity was determined in thyroid at 3h after intravenous administration of [125I]-labeled 2-oleoglycerol 1,3-Bis-[omega-(3-amino-2,4,6-triiodophenyl)alkanoates] in rats; assay type: ADME, organism-based, Thyroid gland; settings: in vivo
# [31] = system: Rattus norvegicus; test: Distribution of radioactivity was determined in spleen at 30 min after intravenous administration of [125I]-labeled 2-oleoglycerol 1,3-Bis-[omega-(3-amino-2,4,6-triiodophenyl)alkanoates] in rats; assay type: ADME, organism-based; settings: in vivo, 0.5 h
# [32] = system: Rattus norvegicus; test: Distribution of radioactivity was determined in blood at 3h after intravenous administration of [125I]-labeled 2-oleoglycerol 1,3-Bis-[omega-(3-amino-2,4,6-triiodophenyl)alkanoates] in rats; assay type: ADME, organism-based; settings: in vivo
# [33] = system: Rattus norvegicus; test: Distribution of radioactivity was determined in lung at 3h after intravenous administration of [125I]-labeled 2-oleoglycerol 1,3-Bis-[omega-(3-amino-2,4,6-triiodophenyl)alkanoates] in rats; assay type: ADME, organism-based; settings: in vivo
# [34] = system: Rattus norvegicus; test: Distribution of radioactivity was determined in liver at 48 hr after intravenous administration of 1,3-Disubstituted Triacylglycerols in rats; assay type: ADME, organism-based; settings: in vivo
# [35] = system: Rattus norvegicus; test: Distribution of radioactivity was determined in heart at 24 after intravenous administration of [125I]-labeled 2-oleoglycerol 1,3-Bis-[omega-(3-amino-2,4,6-triiodophenyl)alkanoates] in rats; assay type: ADME, organism-based; settings: in vivo
Radioactivity per organ [1] [% dose/organ],Radioactivity [2] [%],Radioactivity [3] [%],Distribution of radioactivity [4] [% dose/g],Lipid-soluble radioactivity [5],Distribution of radioactivity [6] [% dose/g],Distribution of radioactivity [7] [% dose per organ],Lipid-soluble radioactivity [8],Distribution of radioactivity [9] [% dose/g],Distribution of radioactivity [10] [% dose/organ],Distribution of radioactivity [11] [% dose/g],Radioactivity [12] [%],Lipid-soluble radioactivity [13],Distribution of radioactivity [14] [% dose/g],Distribution of radioactivity [15] [% dose/g],Distribution of radioactivity [16] [% dose/organ],Distribution of radioactivity [17],Lipid-soluble radioactivity [18],Distribution of radioactivity [19] [% dose/organ],Distribution of radioactivity [20] [% dose/organ],SMILES,also measured
69.8,0.7,1.8,24.2,59.5,0.72,0.1,62.6,7.9,79,0.07,95.7,24.4,0.04,2.58,12.2,0.01,85.1,7.6,0.5,CCCCCCCC/C=C/CCCCCCCC(=O)OC(COC(=O)Cc1c(I)cc(I)c(N)c1I)COC(=O)Cc1c(I)cc(I)c(N)c1I,Distribution of radioactivity [21]: 0.52 % dose/g; Distribution of radioactivity [22]: 9.09 % dose/g; Distribution of radioactivity [23]: 0.2 % dose/organ; Distribution of radioactivity [24]: 16.6 % dose per organ; Distribution of radioactivity [25]: 1.25 % dose/g; Distribution of radioactivity [26]: 0.16 % dose/g; Distribution of radioactivity [27]: 23.6 % dose/g; Distribution of radioactivity [28]: 0.1 % dose/g; Lipid-soluble radioactivity [29]: 87.5; Distribution of radioactivity [30]: 0.27 % dose/g; Distribution of radioactivity [31]: 23.4 % dose/g; Distribution of radioactivity [32]: 0.04 % dose/g; Distribution of radioactivity [33]: 0.38 % dose/g; Distribution of radioactivity [34]: 59.7 % dose/organ; Distribution of radioactivity [35]: 0.03 % dose/g
65.1,5.5,20.7,13.7,88.8,0.54,0.7,91.1,7.37,60.7,0.09,65.6,54.5,0.09,6.74,6.4,0.14,98.9,0.9,0.9,CCCCCCCC/C=C/CCCCCCCC(=O)OC(COC(=O)CCCCc1c(I)cc(I)c(N)c1I)COC(=O)CCCCc1c(I)cc(I)c(N)c1I,Distribution of radioactivity [21]: 0.59 % dose/g; Distribution of radioactivity [22]: 4.53 % dose/g; Distribution of radioactivity [23]: 1.4 % dose/organ; Distribution of radioactivity [24]: 3.7 % dose per organ; Distribution of radioactivity [25]: 0.1 % dose/g; Distribution of radioactivity [26]: 0.54 % dose/g; Distribution of radioactivity [27]: 14.5 % dose/g; Distribution of radioactivity [28]: 0.09 % dose/g; Lipid-soluble radioactivity [29]: 86.5; Distribution of radioactivity [30]: 1.16 % dose/g; Distribution of radioactivity [31]: 17.9 % dose/g; Distribution of radioactivity [32]: 0.08 % dose/g; Distribution of radioactivity [33]: 0.46 % dose/g; Distribution of radioactivity [34]: 26.8 % dose/organ; Distribution of radioactivity [35]: 0.07 % dose/g
